Results on two compounds are retold here after ChEMBL document CHEMBL4387735, “Chemically synthesized LYRM03 could inhibit the metastasis of human breast cancer MDA-MB-231 cells in vitro and in vivo” (Bioorg Med Chem Lett, 2019).

The source made the active and inactive calls. The rule behind the calls is not given here.

The test system of series [1] is MDA-MB-231. Kind of series: Cytotoxicity against human MDA-MB-231 cells assessed as reduction in cell viability at 100 ug/ml incubated for 48 hrs by MTT assay. The format is cell-based. Conditions: mda-mb-231, 48 h. For orientation: Formazan colour is commonly taken as a measure of viable cells.
The test system of series [2] is MDA-MB-231. The series is described as follows: Antimetastatic activity against human MDA-MB-231 cells xenografted in SCID mouse assessed as reduction in metastasis foci formation in lungs at 100 mg/kg, ip administered 3 times per week by hematoxylin-eosin staining based assay. The format is functional, organism-based. A general note: A xenograft is tissue or cells of one species grown in another, often human tumour cells in immunodeficient mice.

Series [3] has as its target Aminopeptidase N (Homo sapiens) (UniProt P15144). Conditions: MDA-MB-231, 50 ug/ml.
Description: Inhibition of human APN in MDA-MB-231 cells at 50 ug/ml using L-leucine-p-nitroanilide as a substrate incubated for 1 hr by spectrophotometric method relative to control
The subject of series [4] is MDA-MB-231. Kind of series: Induction of apoptosis in human MDA-MB-231 cells assessed as early apoptotic cells at 50 ug/ml by Annexin V/PI staining based flow cytometric method (reference value: 0.54%). The format is functional.
Series [5] has as its system MDA-MB-231. Kind of series: Induction of apoptosis in human MDA-MB-231 cells assessed as live cells at 50 ug/ml by Annexin V/PI staining based flow cytometric method (reference value: 90.75%). The format is functional. A general note: In flow cytometry, cells or beads pass a laser one at a time.
Series [6] has as its system MDA-MB-231. Kind of series: Cytotoxicity against human MDA-MB-231 cells assessed as reduction in cell viability at 100 ug/ml incubated for 24 to 48 hrs by MTT assay relative to control. The format is cell-based.
Series [7] concerns the target Aminopeptidase N (Homo sapiens) (UniProt P15144). Kind of series: Inhibition of human APN in MDA-MB-231 cells at >50 ug/ml using L-leucine-p-nitroanilide as a substrate incubated for 1 hr by spectrophotometric method relative to control. The format is cell-based.
Series [8] has as its system MDA-MB-231. The series is described as follows: Effect on APN protein expression in human MDA-MB-231 cells at 10 to 100 ug/ml by Western blot analysis. The format is functional, cell-based.
For series [9], the system named is MDA-MB-231. The series is described as follows: Induction of apoptosis in human MDA-MB-231 cells assessed as late apoptotic cells at 50 ug/ml by Annexin V/PI staining based flow cytometric method (reference value: 0.92%). The format is functional.
The test system of series [10] is MDA-MB-231. Kind of series: Induction of apoptosis in human MDA-MB-231 cells assessed as necrotic cells at 50 ug/ml by Annexin V/PI staining based flow cytometric method (reference value: 7.79%). The format is functional.
For series [11], the system named is MDA-MB-231. The series is described as follows: Induction of apoptosis in human MDA-MB-231 cells assessed as live cells at 100 ug/ml by Annexin V/PI staining based flow cytometric method (reference value: 90.75%). The format is functional.
The test system of series [12] is MDA-MB-231. Kind of series: Induction of apoptosis in human MDA-MB-231 cells assessed as early apoptotic cells at 100 ug/ml by Annexin V/PI staining based flow cytometric method (reference value: 0.54%). The format is functional.
Series [13] deals with MDA-MB-231. The series is described as follows: Induction of apoptosis in human MDA-MB-231 cells assessed as late apoptotic cells at 100 ug/ml by Annexin V/PI staining based flow cytometric method (reference value: 0.92%). The format is functional.
The test system of series [14] is MDA-MB-231. Kind of series: Induction of apoptosis in human MDA-MB-231 cells assessed as necrotic cells at 100 ug/ml by Annexin V/PI staining based flow cytometric method (reference value: 7.79%). The format is functional.
Series [15] has as its system MDA-MB-231. The series is described as follows: Inhibition of colony formation in human MDA-MB-231 cells at 50 to 100 ug/ml incubated for 10 days. The format is functional, cell-based.
For series [16], the system named is MDA-MB-231. The series is described as follows: Inhibition of cell migration in human MDA-MB-231 cells incubated upto to 24 hrs by wound healing assay. The format is functional, cell-based.
For series [17], the system named is MDA-MB-231. Kind of series: Antimigratory activity in human MDA-MB-231 cells assessed as induction of slow cell migration at 100 ug/ml incubated up to 24 hrs by wound healing assay. The format is functional, cell-based.
Series [18] has as its system MDA-MB-231. The series is described as follows: Antimetastatic activity in human MDA-MB-231 cells assessed as reduction in cell migration at 50 to 100 ug/ml incubated for 24 hrs by transwell assay. The format is functional, cell-based.
For series [19], the system named is MDA-MB-231. The series is described as follows: Effect on MMP2 protein expression in human MDA-MB-231 cells. The format is functional, cell-based.
Series [20] deals with MDA-MB-231. Kind of series: Effect on MMP7 protein expression in human MDA-MB-231 cells. The format is functional, cell-based.
The test system of series [21] is MDA-MB-231. Kind of series: Effect on MMP9 protein expression in human MDA-MB-231 cells. The format is functional, cell-based.
In series [22] the test system is MDA-MB-231. The series is described as follows: Induction of apoptosis in human MDA-MB-231 cells assessed as induction of PARP cleavage at 10 to 100 ug/ml 6 to 48 hrs by Western blot analysis. The format is functional, cell-based.
Series [23] has as its system MDA-MB-231. Kind of series: Inhibition of cell migration in human MDA-MB-231 cells assessed as scratch healing at 10 to 100 ug/ml incubated for 24 hrs by wound healing assay. The format is functional. On the set-up: scale not given: the % may be the effect or the level left.

One may read the inhibition as the percentage by which the read-out fell short of the control.

Sequence of Aminopeptidase N (Homo sapiens) (P15144 whole entry): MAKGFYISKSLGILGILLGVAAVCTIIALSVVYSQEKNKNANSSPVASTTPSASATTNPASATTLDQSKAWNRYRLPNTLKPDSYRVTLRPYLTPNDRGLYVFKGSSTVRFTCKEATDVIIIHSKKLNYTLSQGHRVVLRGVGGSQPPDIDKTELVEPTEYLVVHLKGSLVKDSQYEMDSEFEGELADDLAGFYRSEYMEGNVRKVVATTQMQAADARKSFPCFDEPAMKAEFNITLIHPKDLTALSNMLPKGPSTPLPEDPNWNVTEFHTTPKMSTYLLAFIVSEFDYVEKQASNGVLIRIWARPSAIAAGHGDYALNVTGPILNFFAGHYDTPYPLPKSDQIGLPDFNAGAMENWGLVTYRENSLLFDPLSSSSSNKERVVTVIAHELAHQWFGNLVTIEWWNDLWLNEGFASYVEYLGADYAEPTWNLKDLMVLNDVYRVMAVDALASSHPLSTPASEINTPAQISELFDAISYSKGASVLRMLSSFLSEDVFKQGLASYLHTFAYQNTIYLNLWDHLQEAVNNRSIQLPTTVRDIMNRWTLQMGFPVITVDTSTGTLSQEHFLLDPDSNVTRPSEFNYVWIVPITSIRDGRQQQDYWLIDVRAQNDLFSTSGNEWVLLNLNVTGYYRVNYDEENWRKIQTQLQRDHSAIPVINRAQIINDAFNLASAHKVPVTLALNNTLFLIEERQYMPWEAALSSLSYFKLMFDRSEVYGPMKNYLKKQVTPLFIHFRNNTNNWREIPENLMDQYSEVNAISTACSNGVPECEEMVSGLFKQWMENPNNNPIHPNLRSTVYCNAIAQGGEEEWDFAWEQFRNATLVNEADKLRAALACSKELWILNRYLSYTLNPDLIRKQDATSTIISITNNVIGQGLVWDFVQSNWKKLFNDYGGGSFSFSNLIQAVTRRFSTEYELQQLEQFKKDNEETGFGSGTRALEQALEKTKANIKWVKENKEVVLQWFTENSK

Regarding `CC(C)C[C@H](NC(=O)[C@@H](O)[C@H](N)Cc1ccccc1)C(=O)O` [UBENIMEX], the Activity entry in the series on MDA-MB-231 [1] is on record as “Toxic”. Besides, in the series with MDA-MB-231 [2], the outcome was Active. The inhibition result in series [3] was “Active”.

`CC[C@H](C)[C@H](NC(=O)[C@@H](NC(=O)[C@@H](O)[C@H](N)Cc1ccccc1)C(C)C)C(=O)O`: the Activity in the series with MDA-MB-231 [4] was 0.73%; in the series with MDA-MB-231 [5] it was 89.98%; in the series with MDA-MB-231 [6] it was “<= 20%”; in the series on MDA-MB-231 [9], 0.77%; in the series on MDA-MB-231 [10], 8.51%; with MDA-MB-231 [11], 89.5%. Besides, the Activity with MDA-MB-231 [12] came to 0.71%; in the series on MDA-MB-231 [13], 0.75%; in the series with MDA-MB-231 [14], 9.05%; with MDA-MB-231 [23], 50%. In addition, the inhibition in [7] is more than 50%; in the series with MDA-MB-231 [16], “Dose-dependent effect”. The result in the series on MDA-MB-231 [8], in the series on MDA-MB-231 [19], with MDA-MB-231 [20], in the series with MDA-MB-231 [21] and with MDA-MB-231 [22] was inactive. In addition, the inhibition entry in the series with MDA-MB-231 [15] is “Active”. In addition, the result in the series on MDA-MB-231 [17], in the series with MDA-MB-231 [18] and with MDA-MB-231 [2] was Active.
